This note sets out measurements from patent US9708334B2, “Substituted 2,4,5,6-tetrahydropyrrolo[3,4-c]pyrazole and 4,5,6,7-tetrahydro-2H-pyrazolo[4,3-c]pyridine compounds as GlyT1 inhibitors” (DART NEUROSCIENCE (CAYMAN) LTD., priority 2014, dated 2017).

The target of the test is T1, GlyT1 (Homo sapiens, UniProt P48067).
T1 construct: expressed in transfected cells
T1 sequence (P48067 1-706): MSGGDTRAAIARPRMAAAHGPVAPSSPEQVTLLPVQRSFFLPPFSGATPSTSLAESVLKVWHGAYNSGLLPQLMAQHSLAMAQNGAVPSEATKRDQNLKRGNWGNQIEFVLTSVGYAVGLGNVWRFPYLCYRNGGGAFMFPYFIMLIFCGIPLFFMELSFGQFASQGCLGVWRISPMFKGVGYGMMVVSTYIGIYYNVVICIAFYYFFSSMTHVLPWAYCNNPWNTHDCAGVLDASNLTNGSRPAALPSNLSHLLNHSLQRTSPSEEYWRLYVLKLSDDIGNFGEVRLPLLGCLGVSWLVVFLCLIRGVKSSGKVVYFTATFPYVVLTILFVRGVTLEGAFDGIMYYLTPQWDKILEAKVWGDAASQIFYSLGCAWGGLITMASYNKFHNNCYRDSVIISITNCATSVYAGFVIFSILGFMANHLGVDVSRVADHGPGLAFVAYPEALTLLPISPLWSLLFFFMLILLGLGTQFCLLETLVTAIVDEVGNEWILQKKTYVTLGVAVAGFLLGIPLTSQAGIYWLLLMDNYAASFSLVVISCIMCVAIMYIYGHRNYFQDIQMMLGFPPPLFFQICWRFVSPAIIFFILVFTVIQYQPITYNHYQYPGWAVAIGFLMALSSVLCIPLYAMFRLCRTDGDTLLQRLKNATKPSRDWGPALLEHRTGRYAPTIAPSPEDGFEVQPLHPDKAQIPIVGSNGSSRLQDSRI
Nature of the test: Glycine Transporter 1 (GlyT1) uptake assay, scintillation proximity assay of [14C]-glycine uptake. To be noted: SPA, four parameter logistic fit, read-out: GlyT1 (pIC50) (converted). In kind it is cell-based. The essentials: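 IC50 values derive from four-parameter logistic curves fitted to dose-response data. Uptake of [14C]-glycine measured in scintillation proximity format.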
As to `CC(C)COc1ccc(S(C)(=O)=O)cc1C(=O)N1Cc2cn(-c3ccccc3F)nc2C1` [Example 66, 2-(2-Fluorophenyl)-5-[5-methanesulfonyl-2-(2-methylpropoxy)benzoyl]-2H 4H 5H 6H-pyrrolo[3,4-c]pyrazole], the IC50 was below 100 nM.
In the case of `CS(=O)(=O)c1ccc(OCC2CC2)c(C(=O)N2Cc3cnn(-c4cccc(C(F)(F)F)c4)c3C2)c1` [Example 159, 5-[2-(Cyclopropylmethoxy)-5-methanesulfonylbenzoyl]-1-[3-(trifluoromethyl)phenyl]-1H 4H 5H 6H-pyrrolo[3,4-c]pyrazole], the IC50 was 1000 to 10000 nM.
Under `COc1c(C#N)ccc(O[C@@H](C)C(F)(F)F)c1C(=O)N1Cc2cn(-c3ccc(F)c(C)n3)nc2C1` [Example 296, 3-[2-(5-Fluoro-6-methylpyridin-2-yl)-2H 4H 5H 6H-pyrrolo[3,4-c]pyrazole-5-carbonyl]-2-methoxy-4-{[(2 S)-1 1 1-trifluoropropan-2-yl]oxy}benzonitrile] stands below 100 nM.
To `Cc1cccc(-n2cc3c(n2)CN(C(=O)c2c(OCC(F)(F)F)ccc(C#N)c2Cl)C3)n1` [Example 22, 2-Chloro-3-[2-(6-methylpyridin-2-yl)-2H 4H 5H 6H-pyrrolo[3,4-c]pyrazole-5-carbonyl]-4-(2 2 2-trifluoroethoxy)benzonitrile] belongs 100 to 1000 nM; to `C[C@H](Oc1ccc(C#N)cc1C(=O)N1Cc2cnn(C3CCCC3)c2C1)C(F)(F)F` [Example 388, 3-{1-Cyclopentyl-1H 4H 5H 6H-pyrrolo[3,4-c]pyrazole-5-carbonyl}-4-{[(2 S)-1 1 1-trifluoropropan-2-yl]oxy}benzonitrile], 1000 to 10000 nM; to `COc1c(C#N)ccc(OC(C)(C)C(F)(F)F)c1C(=O)N1Cc2cn(-c3ccc(F)cc3)nc2C1` [Example 516, 3-[2-(4-Fluorophenyl)-2H 4H 5H 6H-pyrrolo[3,4-c]pyrazole-5-carbonyl]-2-methoxy-4-[(1 1 1-trifluoro-2-methylpropan-2-yl)oxy]benzonitrile], below 100 nM.
For `CC(C)Oc1ccc(C#N)cc1C(=O)N1Cc2cn(CC3CC3)nc2C1` [Example 450, 3-[2-(Cyclopropylmethyl)-2H 4H 5H 6H-pyrrolo[3,4-c]pyrazole-5-carbonyl]-4-(propan-2-yloxy)benzonitrile], the IC50 was 100 to 1000 nM.
For `COc1c(C#N)ccc(OC(C)C(F)(F)F)c1C(=O)N1CCc2c(cnn2C2CCCCC2)C1` (stereo not drawn) [Example 215, 3-{1-Cyclohexyl-1H 4H 5H 6H 7H-pyrazolo[4,3-c]pyridine-5-carbonyl}-2-methoxy-4-[(1 1 1-trifluoropropan-2-yl)oxy]benzonitrile], the IC50 was below 100 nM.
Under `Cc1cccc(-n2cc3c(n2)CN(C(=O)c2cc(S(C)(=O)=O)ccc2OCC(F)(F)F)C3)c1F` [Example 106, 2-(2-Fluoro-3-methylphenyl)-5-[5-methanesulfonyl-2-(2 2 2-trifluoroethoxy)benzoyl]-2H 4H 5H 6H-pyrrolo[3,4-c]pyrazole] stands below 100 nM.
To `CS(=O)(=O)c1ccc(-c2cncc(F)c2)c(C(=O)N2Cc3cn(-c4ccccc4F)nc3C2)c1` [Example 561, 3-Fluoro-5-{2-[2-(2-fluorophenyl)-2H 4H 5H 6H-pyrrolo[3,4-c]pyrazole-5-carbonyl]-4-methanesulfonylphenyl}pyridine] belongs below 100 nM; to `Cc1nn(C)c(C)c1-n1cc2c(n1)CN(C(=O)c1c(O[C@@H](C)C(F)(F)F)ccc(C#N)c1Cl)C2` [Example 307, 2-Chloro-4-{[(2S)-1 1 1-trifluoropropan-2-yl]oxy}-3-[2-(trimethyl-1H-pyrazol-4-yl)-2H 4H 5H 6H-pyrrolo[3,4-c]pyrazole-5-carbonyl]benzonitrile], 100 to 1000 nM.
Under `COc1c(C#N)ccc(OCC2CC2)c1C(=O)N1Cc2cn(-c3ccc(F)cc3)nc2C1` [Example 317, 4-(Cyclopropylmethoxy)-3-[2-(4-fluorophenyl)-2H 4H 5H 6H-pyrrolo[3,4-c]pyrazole-5-carbonyl]-2-methoxybenzonitrile] stands below 100 nM; under `Cc1cccc(-n2cc3c(n2)CN(C(=O)c2cc(S(C)(=O)=O)ccc2O[C@@H](C)C(F)(F)F)C3)c1` [Example 34, 5-(5-Methanesulfonyl-2-{[(2S)-1 1 1-trifluoropropan-2-yl]oxy}benzoyl)-2-(3-methylphenyl)-2H 4H 5H 6H-pyrrolo[3,4-c]pyrazole], below 100 nM.
Turning to `COc1ncc(F)cc1-n1cc2c(n1)CCN(C(=O)c1c(OC(C)C(F)(F)F)ccc(C#N)c1Cl)C2` (stereo not drawn) [Example 230, 2-Chloro-3-[2-(5-fluoro-2-methoxypyridin-3-yl)-2H 4H 5H 6H 7H-pyrazolo[4,3-c]pyridine-5-carbonyl]-4-[(1 1 1-trifluoropropan-2-yl)oxy]benzonitrile], the IC50 was 100 to 1000 nM.
Consider `Cc1ccc(-n2cc3c(n2)CN(C(=O)c2c(O[C@@H](C)C(F)(F)F)ccc(C#N)c2Cl)C3)cn1` [Example 265, 2-Chloro-3-[2-(6-methylpyridin-3-yl)-2H 4H 5H 6H-pyrrolo[3,4-c]pyrazole-5-carbonyl]-4-{[(2S)-1 1 1-trifluoropropan-2-yl]oxy}benzonitrile], for which the IC50 was 100 to 1000 nM.
Under `C[C@@H](Oc1ccc(C#N)c(Cl)c1C(=O)N1Cc2cn(-c3cncc(F)c3)nc2C1)C(F)(F)F` [Example 30, 2-Chloro-3-[2-(5-fluoropyridin-3-yl)-2H 4H 5H 6H-pyrrolo[3,4-c]pyrazole-5-carbonyl]-4-{[(2R)-1 1 1-trifluoropropan-2-yl]oxy}benzonitrile] stands below 100 nM; under `COc1c(C(=O)N2CCC2)ccc(OC(C)C(F)(F)F)c1C(=O)N1CCc2nn(-c3ccc(F)cc3)cc2C1` (stereo not drawn) [Example 479, 1-{3-[2-(4-Fluorophenyl)-2H 4H 5H 6H 7H-pyrazolo[4,3-c]pyridine-5-carbonyl]-2-methoxy-4-[(1 1 1-trifluoropropan-2-yl)oxy]benzoyl}azetidine], below 100 nM; under `C[C@H](Oc1ccc(C#N)cc1C(=O)N1Cc2cn(-c3ccc(F)cc3)nc2C1)C(F)(F)F` [Example 530, 3-[2-(4-Fluorophenyl)-2H 4H 5H 6H-pyrrolo[3,4-c]pyrazole-5-carbonyl]-4-{[(2S)-1 1 1-trifluoropropan-2-yl]oxy}benzonitrile], 100 to 1000 nM.
`CC(C)Oc1ccc(S(C)(=O)=O)cc1C(=O)N1Cc2cn(CC3CCC3)nc2C1` [Example 410, 2-(Cyclobutylmethyl)-5-[5-methanesulfonyl-2-(propan-2-yloxy)benzoyl]-2H 4H 5H 6H-pyrrolo[3,4-c]pyrazole]: the IC50 was below 100 nM.
Under `Cc1nc(-n2cc3c(n2)CN(C(=O)c2cc(C#N)ccc2O[C@@H](C)C(F)(F)F)C3)ccc1F` [Example 345, 3-[2-(5-Fluoro-6-methylpyridin-2-yl)-2H 4H 5H 6H-pyrrolo[3,4-c]pyrazole-5-carbonyl]-4-{[(2S)-1 1 1-trifluoropropan-2-yl]oxy}benzonitrile] stands 100 to 1000 nM; under `COc1c(C#N)ccc(OCC2(C)COC2)c1C(=O)N1Cc2cn(-c3ccc(F)c(C)n3)nc2C1` [Example 536, 3-[2-(5-Fluoro-6-methylpyridin-2-yl)-2H 4H 5H 6H-pyrrolo[3,4-c]pyrazole-5-carbonyl]-2-methoxy-4-[(3-methyloxetan-3-yl)methoxy]benzonitrile], 100 to 1000 nM.
